Series [1] deals with T1, NC(=O)c1ccc[n+]([C@@H]2O[C@H](COP(=O)([O-])OP(=O)(O)OC[C@H]3O[C@@H](n4cnc5c4ncn4ccnc54)[C@H](O)[C@@H]3O)[C@@H](O)[C@H]2O)c1.
T1 construct: recombinant human His-tagged CD38 protein
The series can be described thus: fluorescence hydrolase assay, Km determination. Format: biochemical, Homo sapiens.

The next series concerns the target T2, CD38 (rhCD38) (Homo sapiens, UniProt P28907).
T2 construct: ectodomain of recombinant human CD38 (His-tagged)
The series can be described thus: tryptophan fluorescence quenching titration. Format: binding.

As a reminder, the Kd is the free concentration of one partner at which half of the binding sites on the other are occupied at equilibrium, for simple one-to-one binding.

Like-named read-outs stand apart in the source and are kept apart here.

T2 sequence (P28907 45-300): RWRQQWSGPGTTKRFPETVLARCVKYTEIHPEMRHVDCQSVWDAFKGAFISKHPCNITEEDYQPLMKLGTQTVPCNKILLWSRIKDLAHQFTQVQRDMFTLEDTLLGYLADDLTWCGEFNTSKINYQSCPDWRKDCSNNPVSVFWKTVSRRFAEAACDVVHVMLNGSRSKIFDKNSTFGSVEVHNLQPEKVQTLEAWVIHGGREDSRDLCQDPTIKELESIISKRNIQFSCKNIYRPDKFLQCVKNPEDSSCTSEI

Take CD38 (rhCD38) (Homo sapiens): in series [1], the Km is on record as 56.2 ± 8.9 x 10^−6 M.

At CD38 (rhCD38), `NC(=O)c1ccc[n+]([C@@H]2O[C@H](COP(=O)([O-])OP(=O)(O)OC[C@H]3O[C@@H](n4cnc5c(N)ncnc54)[C@H](O)[C@@H]3O)[C@@H](O)[C@H]2O)c1` [β-NAD] displayed a dissociation constant Kd of 28 ± 9.4 µM.

Consider `Nc1nc2c(ncn2[C@@H]2O[C@@H]3COP(=O)(S)O[C@H]4[C@@H](O)[C@H](n5cnc6c(N)ncnc65)O[C@@H]4COP(=O)(S)O[C@@H]2[C@@H]3O)c(=O)[nH]1` (stereo partly drawn) [2′3′-cG^sA^sMP], for which the Kd on CD38 (rhCD38) (read-out: Kd) worked out at 46.3 ± 9.8 µM.
